How the values were obtained:
Type in all cases: cell-based
Settings in all cases: fluorescent calcium assay
[1] = molecular target: TRPML1 (Homo sapiens, UniProt Q9GZU1); experiment: Fluorescent TRPML1 assay (Fluo4-AM calcium fluorescence in doxycycline-induced HEK-293 Trex cells)
Summary of the method: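 First, expression of surface-targeted mutant human TRPML1 is induced in HEK-293 Trex cells with 0.5 ug/mL doxycycline the day before. Next, cells take up 1 micromolar Fluo4-AM in Ringer's with 0.1% Pluronic. Finally, they are added to compounds (6 nanomolar–20 micromolar final) in 10 mM calcium Ringer's and fluorescence is read.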

[2] = molecular target: T1, TRPML2 (Homo sapiens, UniProt Q8IZK6); experiment: Fluorescent TRPML2 assay (performed as for TRPML1, substituting the TRPML2 subtype)
T1 construct: expressed in transfected cells
T1 sequence (Q8IZK6 1-566): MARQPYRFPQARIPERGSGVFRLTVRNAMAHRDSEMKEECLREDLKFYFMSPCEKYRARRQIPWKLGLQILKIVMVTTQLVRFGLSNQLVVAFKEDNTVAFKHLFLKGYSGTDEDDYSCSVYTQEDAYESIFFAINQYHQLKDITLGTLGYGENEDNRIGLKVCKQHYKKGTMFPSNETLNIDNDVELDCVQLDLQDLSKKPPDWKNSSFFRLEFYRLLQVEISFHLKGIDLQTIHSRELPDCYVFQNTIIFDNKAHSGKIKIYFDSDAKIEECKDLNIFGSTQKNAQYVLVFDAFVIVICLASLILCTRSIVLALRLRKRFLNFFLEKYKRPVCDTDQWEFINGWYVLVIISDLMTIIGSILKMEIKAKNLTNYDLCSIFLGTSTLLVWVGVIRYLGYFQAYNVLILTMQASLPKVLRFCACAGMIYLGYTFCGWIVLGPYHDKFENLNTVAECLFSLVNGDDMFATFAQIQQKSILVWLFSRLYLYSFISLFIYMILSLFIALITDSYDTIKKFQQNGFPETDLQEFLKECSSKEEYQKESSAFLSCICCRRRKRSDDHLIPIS
Summary of the method: (§1)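 HEK-293 Trex cells with doxycycline-induced (0.5 ug/mL) surface-directed human TRPML subtype, loaded with 1 μM Fluo4-AM, resuspended in Ringer's with 10 mM calcium. Compounds at 20 μM to 6 nM final in half-log steps, triplicate; fluorescence ex 480/em 540; EC50 by non-linear regression versus plate controls.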

[3] = molecular target: T2, TRPML3 (Homo sapiens, UniProt Q8TDD5); experiment: Fluorescent TRPML3 assay (performed as for TRPML1, substituting the TRPML3 subtype)
T2 construct: expressed in transfected cells
T2 sequence (Q8TDD5 1-553): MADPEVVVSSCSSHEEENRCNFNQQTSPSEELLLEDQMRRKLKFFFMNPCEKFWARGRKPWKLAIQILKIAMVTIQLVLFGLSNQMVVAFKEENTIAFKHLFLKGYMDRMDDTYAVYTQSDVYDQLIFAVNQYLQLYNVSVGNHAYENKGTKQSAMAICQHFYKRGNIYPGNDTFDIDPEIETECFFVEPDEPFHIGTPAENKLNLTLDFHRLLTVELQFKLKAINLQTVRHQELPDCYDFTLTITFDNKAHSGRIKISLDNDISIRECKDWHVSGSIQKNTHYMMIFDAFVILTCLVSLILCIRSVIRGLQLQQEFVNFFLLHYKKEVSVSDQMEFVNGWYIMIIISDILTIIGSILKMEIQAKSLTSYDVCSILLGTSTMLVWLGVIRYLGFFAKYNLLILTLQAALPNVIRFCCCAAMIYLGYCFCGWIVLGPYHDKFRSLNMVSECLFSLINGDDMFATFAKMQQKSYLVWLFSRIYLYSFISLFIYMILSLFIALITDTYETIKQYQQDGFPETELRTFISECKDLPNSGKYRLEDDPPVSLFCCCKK
Summary of the method: as §1

Chain of TRPML1 (Q9GZU1 whole entry L15A/L16A/L577A/L578A, form open): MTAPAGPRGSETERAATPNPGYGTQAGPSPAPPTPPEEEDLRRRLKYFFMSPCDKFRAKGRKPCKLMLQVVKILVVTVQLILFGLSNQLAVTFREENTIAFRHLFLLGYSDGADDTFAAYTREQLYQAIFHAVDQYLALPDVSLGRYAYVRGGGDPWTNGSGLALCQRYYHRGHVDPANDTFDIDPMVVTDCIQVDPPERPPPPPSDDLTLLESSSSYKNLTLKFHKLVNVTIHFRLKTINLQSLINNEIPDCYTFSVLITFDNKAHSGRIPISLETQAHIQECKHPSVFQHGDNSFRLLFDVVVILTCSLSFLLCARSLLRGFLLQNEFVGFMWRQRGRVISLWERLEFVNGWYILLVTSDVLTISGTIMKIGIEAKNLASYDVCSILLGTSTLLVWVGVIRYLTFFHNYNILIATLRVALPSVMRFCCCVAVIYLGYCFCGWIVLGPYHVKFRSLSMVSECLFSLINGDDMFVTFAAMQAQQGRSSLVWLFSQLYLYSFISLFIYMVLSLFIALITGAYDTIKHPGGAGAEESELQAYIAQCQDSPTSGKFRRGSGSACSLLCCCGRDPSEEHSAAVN

EC50 [1] [nM]	EC50 [2] [nM]	EC50 [3] [nM]	Compound
100 to 500	100 to 500	100 to 500	CC(C)(C)OC(=O)N1CCN(c2ncnc3c2c(-c2ccccn2)cn3-c2ccc(F)c(Cl)c2)CC1 [Compound 151, tert-butyl 4-(7-(3-chloro-4-fluorophenyl)-5-(pyridin-2-yl)-7H-pyrrolo[2,3-d]pyrimidin-4-yl)piperazine-1-carboxylate]
500 to 2000	> 2000	500 to 2000	CCOC(=O)N1CCN(c2ncnc3c2c(-c2ccccn2)cn3-c2ccc(F)c(Cl)c2)CC1 [Compound 152, ethyl 4-(7-(3-chloro-4-fluorophenyl)-5-(pyridin-2-yl)-7H-pyrrolo[2,3-d]pyrimidin-4-yl)piperazine-1-carboxylate]
< 100	< 100	< 100	C[C@H]1CN(C(=O)OC(C)(C)C)CCN1c1ncnc2c1c(-c1ccccn1)cn2-c1ccc(F)c(Cl)c1 [Compound 154, tert-butyl (S)-4-(7-(3-chloro-4-fluorophenyl)-5-(pyridin-2-yl)-7H-pyrrolo[2,3-d]pyrimidin-4-yl)-3-methylpiperazine-1-carboxylate]
100 to 500	500 to 2000	100 to 500	CCOC(=O)N1CCN(c2ncnc3c2c(-c2ccccn2)cn3-c2ccc(F)c(Cl)c2)[C@@H](C)C1 [Compound 155, ethyl (S)-4-(7-(3-chloro-4-fluorophenyl)-5-(pyridin-2-yl)-7H-pyrrolo[2,3-d]pyrimidin-4-yl)-3-methylpiperazine-1-carboxylate]
100 to 500	100 to 500	< 100	CC(C)(C)OC(=O)N1CCN(c2nccc3c2c(C2CC2)cn3-c2ccc(Cl)cc2)CC1 [Compound 156, tert-butyl 4-(1-(4-chlorophenyl)-3-cyclopropyl-1H-pyrrolo[3,2-c]pyridin-4-yl)piperazine-1-carboxylate]
100 to 500	100 to 500	< 100	C[C@@H]1CN(C(=O)OC(C)(C)C)CCN1c1ncnc2c1c(C1CCCC1)cn2-c1cccc(Cl)c1 [Compound 157, tert-butyl (R)-4-(7-(3-chlorophenyl)-5-cyclopentyl-7H-pyrrolo[2,3-d]pyrimidin-4-yl)-3-methylpiperazine-1-carboxylate]
< 100	< 100	< 100	C[C@H]1CN(C(=O)OC(C)(C)C)CCN1c1ncnc2c1c(C1CCCC1)cn2-c1cccc(Cl)c1 [Compound 158, tert-Butyl (S)-4-(7-(3-chlorophenyl)-5-cyclopentyl-7H-pyrrolo[2,3-d]pyrimidin-4-yl)-3-methylpiperazine-1-carboxylate]
100 to 500	100 to 500	100 to 500	Cc1ccc(Cl)cc1-n1cc(-c2ccccn2)c2c(N3CCN(C(=O)OC(C)(C)C)CC3C)ncnc21 (stereo not drawn) [Compound 159, tert-butyl 4-(7-(5-chloro-2-methylphenyl)-5-(pyridin-2-yl)-7H-pyrrolo[2,3-d]pyrimidin-4-yl)-3-methylpiperazine-1-carboxylate]
100 to 500	100 to 500	< 100	Cc1c(Cl)cccc1-n1cc(-c2ccccn2)c2c(N3CCN(C(=O)OC(C)(C)C)CC3C)ncnc21 (stereo not drawn) [Compound 160, tert-butyl 4-(7-(3-chloro-2-methylphenyl)-5-(pyridin-2-yl)-7H-pyrrolo[2,3-d]pyrimidin-4-yl)-3-methylpiperazine-1-carboxylate]
100 to 500	500 to 2000	100 to 500	Cc1nccnc1-c1cn(-c2cccc(Cl)c2)c2ncnc(N3CCN(C(=O)OC(C)(C)C)CC3C)c12 (stereo not drawn) [Compound 161, tert-butyl 4-(7-(3-chlorophenyl)-5-(3-methylpyrazin-2-yl)-7H-pyrrolo[2,3-d]pyrimidin-4-yl)-3-methylpiperazine-1-carboxylate]
500 to 2000	500 to 2000	100 to 500	Cc1c(Cl)cccc1-n1cc(-c2cnccn2)c2c(N3CCN(C(=O)OC(C)(C)C)CC3C)ncnc21 (stereo not drawn) [Compound 162, tert-butyl 4-(7-(3-chloro-2-methylphenyl)-5-(pyrazin-2-yl)-7H-pyrrolo[2,3-d]pyrimidin-4-yl)-3-methylpiperazine-1-carboxylate]
500 to 2000	500 to 2000	100 to 500	Cc1ccc(Cl)cc1-n1cc(-c2cnccn2)c2c(N3CCN(C(=O)OC(C)(C)C)CC3C)ncnc21 (stereo not drawn) [Compound 163, tert-butyl 4-(7-(5-chloro-2-methylphenyl)-5-(pyrazin-2-yl)-7H-pyrrolo[2,3-d]pyrimidin-4-yl)-3-methylpiperazine-1-carboxylate]
< 100	100 to 500	< 100	CC1CN(C(=O)OC(C)(C)C)CCN1c1ncnc2c1c(C1CC1)cn2-c1cncc(Cl)c1 (stereo not drawn) [Compound 164, tert-butyl 4-(7-(5-chloropyridin-3-yl)-5-cyclopropyl-7H-pyrrolo[2,3-d]pyrimidin-4-yl)-3-methylpiperazine-1-carboxylate]
100 to 500	500 to 2000	100 to 500	Cc1cncc(-n2cc(C3CC3)c3c(N4C[C@@H](C)N(C(=O)OC(C)(C)C)C[C@@H]4C)ncnc32)c1 [Compound 165, tert-butyl (2R,5S)-4-(5-cyclopropyl-7-(5-methylpyridin-3-yl)-7H-pyrrolo[2,3-d]pyrimidin-4-yl)-2,5-dimethylpiperazine-1-carboxylate]
100 to 500	500 to 2000	100 to 500	CCc1cncc(-n2cc(C3CC3)c3c(N4CCN(C(=O)OC(C)(C)C)CC4)ncnc32)c1 [Compound 166, tert-butyl 4-(5-cyclopropyl-7-(5-ethylpyridin-3-yl)-7H-pyrrolo[2,3-d]pyrimidin-4-yl)piperazine-1-carboxylate]
100 to 500	500 to 2000	< 100	C[C@@H]1CN(c2ncnc3c2c(C2CC2)cn3-c2cncc(C(F)(F)F)c2)[C@@H](C)CN1C(=O)OC(C)(C)C [Compound 167, tert-butyl (2R,5S)-4-(5-cyclopropyl-7-(5-(trifluoromethyl)pyridin-3-yl)-7H-pyrrolo[2,3-d]pyrimidin-4-yl)-2,5-dimethylpiperazine-1-carboxylate]
500 to 2000	> 2000	500 to 2000	C[C@@H]1CN(c2ncnc3c2c(C2CC2)cn3-c2cccnc2)[C@@H](C)CN1C(=O)OC(C)(C)C [Compound 168, tert-butyl (2R,5S)-4-(5-cyclopropyl-7-(pyridin-3-yl)-7H-pyrrolo[2,3-d]pyrimidin-4-yl)-2,5-dimethylpiperazine-1-carboxylate]
< 100	500 to 2000	< 100	C[C@@H]1CN(c2ncnc3c2c(-c2ccccc2)cn3-c2cccnc2)[C@@H](C)CN1C(=O)OC(C)(C)C [Compound 169, tert-butyl (2R,5S)-2,5-dimethyl-4-(5-phenyl-7-(pyridin-3-yl)-7H-pyrrolo[2,3-d]pyrimidin-4-yl)piperazine-1-carboxylate]
100 to 500	500 to 2000	< 100	C[C@H]1CN(C(=O)OC(C)(C)C)CCN1c1ncnc2c1c(-c1ccccc1)cn2-c1cnn(C)c1 [Compound 170, tert-butyl (S)-3-methyl-4-(7-(1-methyl-1H-pyrazol-4-yl)-5-phenyl-7H-pyrrolo[2,3-d]pyrimidin-4-yl)piperazine-1-carboxylate]
500 to 2000	> 2000	> 2000	CC(C)(C)OC(=O)N1CCN(c2nccc3c2c(-c2ccccc2F)cn3-c2cncnc2)CC1 [Compound 171, tert-butyl 4-(3-(2-fluorophenyl)-1-(pyrimidin-5-yl)-1H-pyrrolo[3,2-c]pyridin-4-yl)piperazine-1-carboxylate]
500 to 2000	> 2000	500 to 2000	CC(C)(CF)OC(=O)N1CCN(c2ncnc3c2c(-c2ccccc2F)cn3-c2cccnc2)CC1 [Compound 172, 1-fluoro-2-methylpropan-2-yl 4-(5-(2-fluorophenyl)-7-(pyridin-3-yl)-7H-pyrrolo[2,3-d]pyrimidin-4-yl)piperazine-1-carboxylate]

Source: US20250136606A1, “MODULATORS OF TRPML, THEIR COMPOSITIONS AND METHODS OF USE” (Caraway Therapeutics, Inc., priority 2021, published 2025)
